Measurements published in patent US7462605B2, “Phosphoramidate compounds and methods of use” (Celmed Oncology (USA), Inc., priority 2002, dated 2008).
Read-outs that look alike come from different tables or passages of the source.

Key:
H630 colon cancer cells = test: alamarBlue cytotoxicity, H630 parental; format: cell-based, human; conditions: Drug Selection None, read-out: NB1011-IC50
Experimental: (§1) Growth Inhibition Studies. Cells growing exponentially were transferred to 384-well flat bottom tissue culture plates. All cell types were plated at a density of 500 cells per well in 25 μL of complete medium (RPMI 1640+10% fetal bovine serum+antibiotics/antimycotics). After 24 hours (day 0), 25 μL of complete medium containing the experimental compounds over the dose range of 10^ñ3 to 10^ñ10 M were added in triplicate. […] 5 μL of the redox indicator, alamarBlue, was added to each well (10% v/v). After 4 hours incubation at 37° C., fluorescence was monitored at 535 nm excitation and 595 nm emission.
(§2) Concentration vs. relative fluorescence units (RFU) were plotted, and sigmoid curves were fit using the Hill equation.
(§3) Cells were grown and characterized as described above. TS expression level is relative to CCD18co, a normal colon epithelial cell line. Tritium release is background substracted as described in Methods. ND=Not detectable above background.

TSH/HT1080 cells = test: alamarBlue cytotoxicity, HT1080 expressing high GFP-TS; format: cell-based, human; conditions: second line printed TSL/HT1080, TS Level 702%
Experimental: (§4) Cell lines and transfection. HT1080 cells were grown in PRM11640 medium supplemented with 10% fetal calf serum, and transfected with GFP-TS expression vector. 48 hours after, transfection cells were tripsinized and replated in culture medium containing 750 μg/ml G418. After selection with G418 for two weeks, surviving cells were sorted based upon fluorescence expression. One clone with higher fluorescence expression (named as TSH/HT1080) and one clone with lower fluorescence expression (named as TSL/HT1080) were selected and expanded into cells lines. The stable HT1080 cells transfected with pEGFP-C3 were used as control.
(§5) Construction of GFP-TS expression vector. […] The cDNA was cloned into HindIII and KpnI sites of mammalian expression vector pEGFP-C3 (Clontech Laboratories. Inc., Palo Alto, Calif.), in-frame with GFP sequence. The cDNA insert was confirmed by DNA sequencing.
(§6) Growth Inhibition Studies. Cells growing exponentially were transferred to 384-well flat bottom tissue culture plates. All cell types were plated at a density of 500 cells per well in 25 μL of complete medium (RPMI 1640+10% fetal bovine serum+antibiotics/antimycotics). […] After 4 hours incubation at 37° C., fluorescence was monitored at 535 nm excitation and 595 nm emission.
as §2

[1] = system: SKOV3 (Ovary) tumor cells; test: alamarBlue growth inhibition, SKOV3; format: cell-based, human; conditions: 120 hours
Experimental: as §1, §2

SKLU1 (Lung) tumor cells = test: alamarBlue growth inhibition, SKLU1; format: cell-based, human; conditions: 120 hours
Experimental: as §1, §2

[2] = system: NHOST (Bone) normal cells; test: alamarBlue growth inhibition, NHOST; format: cell-based, human; conditions: 120 hours
Experimental: as §1, §2

[3] = system: MDAMB361 (Breast) tumor cells; test: alamarBlue growth inhibition, MDAMB361; format: cell-based, human; conditions: 120 hours
Experimental: as §1, §2

NHA (Brain) normal cells = test: alamarBlue growth inhibition, NHA; format: cell-based, human; conditions: 120 hours
Experimental: as §1, §2

RKO colon cancer cells = test: alamarBlue cytotoxicity, RKO parental; format: cell-based, human; conditions: Drug Selection None, read-out: NB1011-IC50
Experimental: as §1, §2, §3

[4] = system: TDX-resistant MCF7 breast tumor cells; test: Tomudex inhibition of NB1011 cytotoxicity (Tomudex rescue assay, alamarBlue); conditions: for IC50: read-out: NB1011 IC50
Experimental: Tomudex Inhibition of NB1011 Cytotoxicity. MCF7-TDX were transferred to a 384 well assay plate at 500 cells in 25 μL complete medium per well. After 24 hours (day 0), 25 μL complete medium containing a combination of NB1011 in doubling serial dilutions from 1 mM and tomudex at discrete concentrations (0,1,10,100,1000 nM) were added in duplicate. Drug exposure time was 120 hours (day 5) after which growth inhibition was measured with alamarBlue as described above in Growth Inhibition Studies (above).
Tomudex is a chemotherapeutic that acts primarily via inhibition of TS. If NB1011 exerts cytotoxicity via the TS enzyme, then inhibition of TS with Tomudex should decrease NB1011-mediated cytotoxicity. […] Cells were plated and exposed to indicated concentrations of compound(s) as described above.

[5] = system: COLO320 (Colon) tumor cells; test: alamarBlue growth inhibition, COLO320; format: cell-based, human; conditions: 120 hours
Experimental: as §1, §2

[6] = system: CCD18co normal colon epithelial cells; test: Thymidine rescue, alamarBlue cytotoxicity; format: cell-based, human; conditions: in the presence of 10 μM thymidine
Excerpt: An additional approach was taken to understanding whether NB1011 might interfere with cell growth primarily by inactivating TS. This approach is based upon thymidine rescue of TS-blocked cells. […] For this reason, they survive only by scavenger mechanisms. One of the important scavenger mechanisms is utilization of extracellular thymidine. Thymidine incorporated by target cells can be converted to dTMP, usually by thymidine kinase, and thus continue DNA synthesis. Other pathways for use of exogenous thymidine have also been described If an important mechanism for NB1011 activity is via inhibition of endogenous TS, then the cytotoxicity should be relieved when thymidine is added to the cell culture media. For this experiment, a number of tumor cell lines were screened for their sensitivity to Tomudex and 5FdUrd, and ability to be rescued from these agents via thymidine supplementation. […] Experiments were carried out as described by (Patterson, et al. (1998)) with or without 10 μM thymidine, except that the alamarBlue assay was employed to determine cytotoxicity.

[7] = system: HEPG2 (Liver) tumor cells; test: alamarBlue growth inhibition, HEPG2; format: cell-based, human; conditions: 120 hours
Experimental: as §1, §2

[8] = system: H630R10 (5FU Resistant) human colon carcinoma; test: H630-10 5-FU resistant colon carcinoma xenografts in athymic mice; conditions: 1.25, 2.5, 3.5 mg daily × 5 days, IP or IT/peritumoral; from Day 6 to Day 25
Experimental: Tumor measurements began on the first day of treatment (Day 1).
Following cell expansion ex-vivo H630-10 were injected subcutaneously (S.Q.) at 1.5×10^7 cells/tumor in the mid-back region of 4-6 week old, female, CD-1 (nu/nu), athymic mice (Charles River Laboratories, Wilmington, Mass.). Tumor volumes, calculated as the product of length, width, and depth, were monitored twice weekly by serial micrometer measurements by a single observer. Six animals were randomly assigned to each treatment group and statistical tests were performed (single-factor ANOVA) to assure uniformity in starting tumor volumes between treatment and control groups at the beginning of the experiment. […] To assure accurate dosing, drug doses were individualized based upon animal weights determined immediately prior to each injection. […] Differences in day 25 xenograft volumes between groups were analyzed by single-factor ANOVA of the log transformed tumor volume data.

[9] = system: SW527 (Breast) tumor cells; test: alamarBlue growth inhibition, SW527; format: cell-based, human; conditions: 120 hours
Experimental: as §1, §2

C/HT1080 cells = test: alamarBlue cytotoxicity, control-transfected HT1080; format: cell-based, human; conditions: C/HT1080, TS Level 100%
Experimental: as §4, §5, §6, §2

[10] = system: NHEPF (Liver) normal cells; test: alamarBlue growth inhibition, NHEPF; format: cell-based, human; conditions: 120 hours
Experimental: as §1, §2

W138 (Lung) normal cells = test: alamarBlue growth inhibition, W138; format: cell-based, human; conditions: 120 hours
Experimental: as §1, §2

[11] = system: SKCO1 (Colon) tumor cells; test: alamarBlue growth inhibition, SKCO1; format: cell-based, human; conditions: 120 hours
Experimental: as §1, §2

TSL/HT1080 cells = test: alamarBlue cytotoxicity, HT1080 expressing low GFP-TS; format: cell-based, human; conditions: TSL/HT1080, TS Level 409%
Experimental: as §4, §5, §6, §2

[12] = system: PC3 (Prostate) tumor cells; test: alamarBlue growth inhibition, PC3; format: cell-based, human; conditions: 120 hours
Experimental: as §1, §2

[13] = system: SKHEP1 (Liver) tumor cells; test: alamarBlue growth inhibition, SKHEP1; format: cell-based, human; conditions: 120 hours
Experimental: as §1, §2

5-(2-Bromovinyl)-2′-deoxyuridine phenyl N-methoxy-L-alaninyl phosphoramidate [NB1011]
IC50 (H630 colon cancer cells): 414 µM
IC50 (TSH/HT1080 cells): 0.8 µM
IC50 [1]: 484 µM
IC50 (SKLU1 (Lung) tumor cells): 270 µM
IC50 [2]: 642 µM
IC50 [3]: 365 µM
IC50 (NHA (Brain) normal cells): 839 µM
IC50 (RKO colon cancer cells): 136 µM
inhibition of NB1011-mediated cytotoxicity by blockade of TS with Tomudex ([4]; maximum (up to)): about 25 fold
IC50 ([4]; [Tomudex] 0 nM): 5.7 µM
IC50 ([4]; [Tomudex] 1 nM): 25.5 µM
IC50 ([4]; [Tomudex] 10 nM): 87.7 µM
IC50 ([4]; [Tomudex] 100 nM): 140 µM
IC50 ([4]; [Tomudex] 1000 nM): 103 µM
IC50 [5]: 401 µM
IC50 [6]: 223 µM
IC50 [7]: 704 µM
tumor growth (xenograft volume) [8]: significant difference between the NB1011 groups vs. either the 5FU or excipient controls
IC50 [9]: 431 µM
IC50 (C/HT1080 cells): 320 µM
IC50 [10]: 2080 µM
IC50 (W138 (Lung) normal cells): 335 µM
IC50 [11]: 184 µM
IC50 (TSL/HT1080 cells): 196 µM
IC50 [12]: 184 µM
IC50 [13]: 247 µM
